Assays:
[1] = system: advanced or metastatic solid tumors; test: Clinical response in phase I dose escalation study CA182-002; format: in vivo, human; settings: 600 mg/day
Protocol: (§1) Blood samples (plasma) for ELISA analysis were obtained from Bristol-Myers Squibb Co. sponsored clinical study CA182-002, which is a phase I dose escalation study to determine the safety, pharmacokinetic, and pharmacodynamics of the example VEGFR-2 inhibitor in patients with advanced or metastatic solid tumors. Blood samples were drawn from patients at screening, pre-dose, and post-dose at 4 hours, Day 1, Day 8, Day 26, and end of treatment. Approximately 60 ml of blood was collected for the protocol specific sampling. Detailed instructions regarding the collection, processing, labeling, handling, storage, and shipment of the specimens were provided in the CA182-002 Laboratory Manual.
Collagen type IV ELISA assays were also examined to see if collagen type IV was useful as a biomarker for clinical response to the example VEGFR-2 inhibitor. […] The reduction in collagen type IV blood levels correlated with clinical evidence of anti-tumor activity. […] Overall, the clinical results from these two evaluable patients confirm the pre-clinical data and indicate that collagen type IV ELISA assay is a clinically useful method to monitor response to a VEGFR-2 modulator(s) such as the example VEGFR-2 inhibitor.

VE-Cadherin = test: ELISA of blood samples from tumor bearing mice; format: in vivo, mouse; settings: 100 mg/kg 1 qd×14 days
Protocol: (§2) Tumors were propagated in nude mice as subcutaneous (sc) transplants using L2987 and HCT-116 cancer cell lines. Tumor passage occurred approximately every two to four weeks. Tumors were then allowed to grow to the pre-determined size window (100-200 mm^3, tumors outside the range were excluded) and animals were evenly distributed to various treatment and control groups. Animals were treated with the example VEGFR-2 inhibitor (100 mg/kg 1 qd×14 days). Treated animals were checked daily for treatment related toxicity/mortality. Each group of animals was weighed before the initiation of treatment (Wt1) and then again following the last treatment dose (Wt2). […] Tumor response was determined by measurement of tumors with a caliper twice a week, until the tumors reached a predetermined target size. […]
(§3) An ELISA method for the detection and measurement of Collagen Type IV and VE-Cadherin on human plasma or any biological sample where the proteins must be detected and measured is described. […] The reaction was terminated by addition of acid and absorbance was measured at 450 nm. A standard curve was prepared from collagen type IV standard dilutions and collagen type IV samples concentration determined. […] The reaction was terminated by addition of acid and absorbance was measured at 450 nm. A standard curve was prepared from VE-cadherin standard dilutions and VE-cadherin samples concentration determined. […]

Collagen type IV [2] = test: ELISA of blood samples from tumor bearing mice; format: in vivo, mouse; settings: 100 mg/kg 1 qd×14 days
Protocol: as §2, §3

Collagen type IV [3] = test: Collagen type IV ELISA of blood (plasma) from cancer patients, clinical study CA182-002; format: in vivo, human
Protocol: as §1
An ELISA method for the detection and measurement of Collagen Type IV and VE-Cadherin on human plasma or any biological sample where the proteins must be detected and measured is described. For collagen type IV ELISA, the kit was provided by Kamiya biomedical company (cat no. KT-035) and the principle method of the assay, a solid phase one-step sandwich ELISA, was as follows. Collagen Type IV in the sample was bound simultaneously by a solid phase monoclonal antibody and a monoclonal antibody-enzyme conjugate, each directed at a different antigenic site. […] After removing unbound enzyme-labeled antibody and samples, the plate was incubated with the enzyme substrate 3,3′,5,5′-tetramethylhylbenzidine (TMB). The resultant color development was directly proportional to the amount of collagen IV in the sample. The reaction was terminated by addition of acid and absorbance was measured at 450 nm. A standard curve was prepared from collagen type IV standard dilutions and collagen type IV samples concentration determined. For VE-Cadherin ELISA, the kit provided by Bender Medsystems (cat no. BMS253) was used and the principle method of the assay was as follows. An anti-VE-cadherin coating antibody was adsorbed onto the microwells. VE-cadherin present in the sample bound to antibodies adsorbed to the microwells; a biotin conjugated anti-VE-cadherin antibody was added and bound to VE-cadherin captured by the first antibody. Following incubation, unbound biotin conjugated anti-VE-cadherin was removed during a wash step. Streptavidin-HRP was added and bound to the biotin conjugated anti-VE-cadherin. Following incubation, unbound streptavidin-HRP was removed during a wash step and substrate solution reactive with HRP was added to the wells. A colored product was formed in proportion to the amount of VE-cadherin present in the sample. The reaction was terminated by addition of acid and absorbance was measured at 450 nm. A standard curve was prepared from VE-cadherin standard dilutions and VE-cadherin samples concentration determined.
Based on the pre-clinical studies, the Collagen type IV ELISA kit was examined as a potential molecular assay to monitor response and validate its expression on specimens obtained from cancer patients who received the example VEGFR-2 inhibitor. Biological samples from twelve cancer patients treated with the example VEGFR-2 inhibitor in protocol CA182002, which is a single agent dose escalation study, three patients each at 180 mg/day, 320 mg/day, 600 mg/day and 800 mg/day, were examined. Collagen Type IV blood levels were determined by an ELISA based assay for each patient at Day 0 (before therapy) and at Day 26 (after treatment). Collagen type IV levels increased on average by 24% at Day 26 in the 180 mg/day cohort; it increased on average only by 7% at Day 26 in the 320 mg/day cohort. In the 600 mg/day cohort, it was reduced on average by 26% at Day 26. In the 800 mg/day cohort, it was reduced only marginally, when compared to the 600 mg/day cohort, by 29% at Day 26.
Collagen type IV ELISA assays were also examined to see if collagen type IV was useful as a biomarker for clinical response to the example VEGFR-2 inhibitor. […] The reduction in collagen type IV blood levels correlated with clinical evidence of anti-tumor activity. […]

Cc1cc2c(F)c(Oc3ncnn4cc(OC[C@@H](C)OC(=O)[C@H](C)N)c(C)c34)ccc2[nH]1 [example VEGFR-2 inhibitor, [(1R),2S]-2-Aminopropionic acid 2-[4-(4-fluoro-2-methyl-1H-indol-5-yloxy)-5-methylpyrrolo[2,1-f][1,2,4]triazin-6-yloxy]-1-methylethyl ester]
clinical response ([1]; another patient): did not achieve a clinical response
time patient was on therapy ([1]; another patient, no clinical response): 32 days
clinical response ([1]; one patient with ampulla of vater carcinoma): partial response
time patient remained on therapy ([1]; one patient with ampulla of vater carcinoma, partial response): 126 days
amount of VE-Cadherin protein detected in the blood following treatment (VE-Cadherin): decreased to levels observed in the healthy mice bearing no tumors
amount of Collagen type IV protein detected in the blood following treatment (Collagen type IV [2]): decreased to levels observed in the healthy mice bearing no tumors
Collagen type IV levels increased on average by (Collagen type IV [3]; 180 mg/day cohort, three patients, Day 26 vs Day 0): 24%
Collagen type IV levels increased on average by (Collagen type IV [3]; 320 mg/day cohort, three patients, Day 26 vs Day 0): 7%
Collagen type IV levels reduced on average by (Collagen type IV [3]; 600 mg/day cohort, three patients, Day 26 vs Day 0): 26%
Collagen type IV levels reduced by (Collagen type IV [3]; 800 mg/day cohort, three patients, Day 26 vs Day 0): 29%
reduction in collagen type IV levels (Collagen type IV [3]; another patient, 600 mg/day, between Day 0 and Day 26, P=0.632): no significant reduction
collagen type IV blood levels reduced (Collagen type IV [3]; one patient with ampulla of vater carcinoma, 600 mg/day, between Day 0 and Day 26, P=0.006): > 50%

From patent US8067189B2, “Methods for determining sensitivity to vascular endothelial growth factor receptor-2 modulators by measuring the level of collagen type IV” (Bristol-Myers Squibb Company, priority 2005, dated 2011)
